Measured values taken from patent US9944646B2, “Bicyclic azaheterocyclobenzylamines as PI3K inhibitors” (Incyte Corporation, priority 2012, dated 2018).
Counter-ions that a name gives are not always drawn.

System: SUDHL-6 cells
Assay: SUDHL-6 Cell Proliferation Assay (Example B3)
Type: cell-based
Conditions: 3 days, Cell Titer-GLO
Experimental: Example B3: SUDHL-6 Cell Proliferation Assay
SUDHL-6 cell line (diffuse large B cell lymphoma) was purchased from ATCC (Manassas, Va.) and maintained in the culture medium recommended (RPMI and 10% FBS). To measure the anti-proliferation activity of the compounds through ATP quantitation, the SUDHL-6 cells was plated with the culture medium (5000 cells/well/per 200 μl) into 96-well polystyrene clear black tissue culture plate (Greiner-bio-one through VWR, NJ) in the presence or absence of a concentration range of test compounds. After 3 days, Cell Titer-GLO Luminescent (Promega, Madison, Wis.) cell culture agent was added to each well for 10 minutes at room temperature to stabilize the luminescent signal. This determines the number of viable cells in culture based on quantitation of the ATP present, which signals the presence of metabolically active cells. Luminescence was measured with the TopCount 384 (Packard Bioscience through Perkin Elmer, Boston, Mass.). […] IC50 data for the Examples is presented in Table 4 determined by the assay of Example B3.

| IC50 [nM] | Compound |
| --- | --- |
| ≤ 500 | CC(=O)N1CC(N2Cc3c(F)c(Cl)cc(C(C)n4nc(C)c5c(N)ncnc54)c3OC(C)C2)C1 (single isomer, unassigned) [Example 29, 1-{1-[4-(1-Acetylazetidin-3-yl)-7-chloro-6-fluoro-2-methyl-2,3,4,5-tetrahydro-1,4-benzoxazepin-9-yl]ethyl}-3-methyl-1H-pyrazolo[3,4-d]pyrimidin-4-amine] |
| ≤ 500 | CC(=O)N1CC(N2Cc3c(F)c(Cl)cc(C(C)n4nc(C)c5c(N)ncnc54)c3OC(C)C2)C1 (single isomer, unassigned) [Example 30, 1-{1-[4-(1-Acetylazetidin-3-yl)-7-chloro-6-fluoro-2-methyl-2,3,4,5-tetrahydro-1,4-benzoxazepin-9-yl]ethyl}-3-methyl-1H-pyrazolo[3,4-d]pyrimidin-4-amine] |

Same assay, conditions: Homo sapiens, SU-DHL-6, 72 h, 3 days, Cell Titer-GLO

| IC50 [nM] | Compound |
| --- | --- |
| ≤ 500 | CC(=O)N1CC(N2Cc3c(F)c(Cl)cc(C(C)n4nc(C)c5c(N)ncnc54)c3OC(C)C2)C1 (single isomer, unassigned) [Example 28, 1-{1-[4-(1-Acetylazetidin-3-yl)-7-chloro-6-fluoro-2-methyl-2,3,4,5-tetrahydro-1,4-benzoxazepin-9-yl]ethyl}-3-methyl-1H-pyrazolo[3,4-d]pyrimidin-4-amine] |

Target: PI3Kδ (p110δ/p85α) (Homo sapiens (Human), UniProt O00329)
Sequence (O00329 whole entry): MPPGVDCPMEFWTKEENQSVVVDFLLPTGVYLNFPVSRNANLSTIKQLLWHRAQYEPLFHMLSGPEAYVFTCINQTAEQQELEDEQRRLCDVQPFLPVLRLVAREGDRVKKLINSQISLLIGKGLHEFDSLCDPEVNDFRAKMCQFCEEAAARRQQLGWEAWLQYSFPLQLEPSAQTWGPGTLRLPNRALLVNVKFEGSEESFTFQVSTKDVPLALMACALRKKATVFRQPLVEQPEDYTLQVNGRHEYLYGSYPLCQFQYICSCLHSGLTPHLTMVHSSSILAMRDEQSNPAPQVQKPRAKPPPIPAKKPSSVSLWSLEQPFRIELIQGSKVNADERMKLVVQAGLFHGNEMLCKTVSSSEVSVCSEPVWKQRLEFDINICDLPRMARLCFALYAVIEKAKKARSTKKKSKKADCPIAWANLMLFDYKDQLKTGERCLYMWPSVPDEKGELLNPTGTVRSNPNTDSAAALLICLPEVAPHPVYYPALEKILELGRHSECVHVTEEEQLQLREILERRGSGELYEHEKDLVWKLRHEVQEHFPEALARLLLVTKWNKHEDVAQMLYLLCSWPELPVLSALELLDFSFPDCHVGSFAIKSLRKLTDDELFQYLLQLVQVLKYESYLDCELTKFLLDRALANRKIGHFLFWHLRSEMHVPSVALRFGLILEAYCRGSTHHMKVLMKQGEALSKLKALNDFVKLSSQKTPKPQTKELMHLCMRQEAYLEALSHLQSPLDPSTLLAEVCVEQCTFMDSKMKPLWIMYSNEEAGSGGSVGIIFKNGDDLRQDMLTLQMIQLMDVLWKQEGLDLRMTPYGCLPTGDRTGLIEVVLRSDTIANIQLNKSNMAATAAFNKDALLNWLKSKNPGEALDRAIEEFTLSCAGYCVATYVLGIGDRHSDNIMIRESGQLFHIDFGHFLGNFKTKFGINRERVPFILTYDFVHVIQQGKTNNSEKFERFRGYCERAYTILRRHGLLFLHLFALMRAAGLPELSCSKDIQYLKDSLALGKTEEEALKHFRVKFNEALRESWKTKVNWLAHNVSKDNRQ
Sequence (P27986 whole entry partner): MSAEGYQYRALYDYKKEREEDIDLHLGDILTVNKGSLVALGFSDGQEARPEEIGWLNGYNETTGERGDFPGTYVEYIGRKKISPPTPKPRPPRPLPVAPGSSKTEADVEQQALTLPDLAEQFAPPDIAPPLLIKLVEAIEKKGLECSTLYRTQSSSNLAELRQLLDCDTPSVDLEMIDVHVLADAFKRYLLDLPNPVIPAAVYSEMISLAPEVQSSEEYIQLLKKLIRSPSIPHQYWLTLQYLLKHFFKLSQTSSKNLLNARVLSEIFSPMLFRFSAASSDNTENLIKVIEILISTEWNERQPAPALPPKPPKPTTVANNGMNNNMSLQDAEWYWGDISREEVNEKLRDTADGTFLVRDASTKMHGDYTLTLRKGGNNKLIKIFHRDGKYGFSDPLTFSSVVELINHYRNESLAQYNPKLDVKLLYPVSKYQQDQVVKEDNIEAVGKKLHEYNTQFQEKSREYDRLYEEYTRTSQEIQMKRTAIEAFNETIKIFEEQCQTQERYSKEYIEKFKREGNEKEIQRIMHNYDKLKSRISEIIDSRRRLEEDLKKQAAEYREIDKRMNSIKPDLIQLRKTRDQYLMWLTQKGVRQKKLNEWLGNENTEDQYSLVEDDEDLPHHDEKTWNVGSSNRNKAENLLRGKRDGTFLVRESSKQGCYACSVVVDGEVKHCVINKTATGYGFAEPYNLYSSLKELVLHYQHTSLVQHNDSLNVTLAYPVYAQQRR
Assay: PI3Kδ Scintillation Proximity Assay (Example A3)
Type: biochemical
Conditions: not given
Source text: Example A3: PI3Kδ Scintillation Proximity Assay
[γ-^33P]ATP (10 mCi/mL) was purchased from Perkin-Elmer (Waltham, Mass.). Lipid kinase substrate, D-myo-Phosphatidylinositol 4,5-bisphosphate (PtdIns(4,5)P2)D (+)-sn-1,2-di-O-octanoylglyceryl, 3-O-phospho linked (PIP2), CAS 204858-53-7, was purchased from Echelon Biosciences (Salt Lake City, Utah). PI3Kδ (p110δ/p85α) was purchased from Millipore (Bedford, Mass.). ATP, MgCl2, DTT, EDTA, MOPS and CHAPS were purchased from Sigma-Aldrich (St. Louis, Mo.). Wheat Germ Agglutinin (WGA) YSi SPA Scintillation Beads was purchased from GE healthcare life sciences (Piscataway, N.J.).
The kinase reaction was conducted in polystyrene 384-well matrix white plate from Thermo Fisher Scientific in a final volume of 25 μL. Inhibitors were first diluted serially in DMSO and added to the plate wells before the addition of other reaction components. The final concentration of DMSO in the assay was 0.5%. The PI3K assays were carried out at room temperature in 20 mM MOPS, pH 6.7, 10 mM MgCl2, 5 mM DTT and CHAPS 0.03%. Reactions were initiated by the addition of ATP, the final reaction mixture consisted of 20 µM PIP2, 20 µM ATP, 0.2 μCi [γ-^33P]ATP, 4 nM PI3Kδ. Reactions were incubated for 210 min and terminated by the addition of 40 μL SPA beads suspended in quench buffer: 150 mM potassium phosphate pH 8.0, 20% glycerol. 25 mM EDTA, 400 µM ATP. The final concentration of SPA beads was 1.0 mg/mL. After the plate sealing, plates were shaken overnight at room temperature and centrifuged at 1800 rpm for 10 minutes, the radioactivity of the product was determined by scintillation counting on Topcount (Perkin-Elmer). IC50 determination was performed by fitting the curve of percent control activity versus the log of the inhibitor concentration using the GraphPad Prism 3.0 software. […] IC50 data for Examples 1-25 is presented in Table 3 for PI3Kδ as determined by the assay of Example A2 or A3 as indicated

| Compound | IC50 [nM] |
| --- | --- |
| Cc1c(Cl)cc(C(C)n2nc(C)c3c(N)ncnc32)c2c1CN(C(C)C)CCO2 (stereo not shown) [Example 10, 1-[1-(7-Chloro-4-isopropyl-6-methyl-2,3,4,5-tetrahydro-1,4-benzoxazepin-9-yl)ethyl]-3-methyl-1H-pyrazolo[3,4-d]pyrimidin-4-amine bis(trifluoroacetate)] | ≤ 100 |
| Cc1ccccc1NC(=O)N1CCOc2c(C(C)n3nc(C)c4c(N)ncnc43)cc(Cl)c(C)c2C1 (stereo not shown) [Example 15, 9-[1-(4-Amino-3-methyl-1H-pyrazolo[3,4-d]pyrimidin-1-yl)ethyl]-7-chloro-6-methyl-N-(2-methylphenyl)-2,3-dihydro-1,4-benzoxazepine-4(5H)-carboxamide trifluoroacetate] | ≤ 100 |
| Cc1c(Cl)cc(C(C)n2nc(C)c3c(N)ncnc32)c2c1CN(C(=O)c1ccccc1)CCO2 (stereo not shown) [Example 16, 1-[1-(4-Benzoyl-7-chloro-6-methyl-2,3,4,5-tetrahydro-1,4-benzoxazepin-9-yl)ethyl]-3-methyl-1H-pyrazolo[3,4-d]pyrimidin-4-amine trifluoroacetate] | ≤ 100 |
| CC(=O)N1CCOc2c(C(C)n3nc(C)c4c(N)ncnc43)cc(Cl)c(C)c2C1 (stereo not shown) [Example 19, 1-[1-(4-Acetyl-7-chloro-6-methyl-2,3,4,5-tetrahydro-1,4-benzoxazepin-9-yl)ethyl]-3-methyl-1H-pyrazolo[3,4-d]pyrimidin-4-amine trifluoroacetate] | ≤ 100 |
| Cc1c(Cl)cc(C(C)n2nc(C)c3c(N)ncnc32)c2c1CN(c1ncc(C#N)s1)CCO2 (stereo not shown) [Example 23, 2-[9-[1-(4-Amino-3-methyl-1H-pyrazolo[3,4-d]pyrimidin-1-yl)ethyl]-7-chloro-6-methyl-2,3-dihydro-1,4-benzoxazepin-4(5H)-yl]-1,3-thiazole-5-carbonitrile trifluoroacetate] | ≤ 100 |
| Cc1c(Cl)cc(C(C)n2nc(C)c3c(N)ncnc32)c2c1C(=O)NCCO2 (stereo not shown) [Example 25, 9-[1-(4-Amino-3-methyl-1H-pyrazolo[3,4-d]pyrimidin-1-yl)ethyl]-7-chloro-6-methyl-3,4-dihydro-1,4-benzoxazepin-5(2H)-one trifluoroacetate] | ≤ 100 |

Second part, the compound after the results:

| IC50 [nM] | Compound |
| --- | --- |
| ≤ 100 | Cc1c(Cl)cc(C(C)n2nc(C)c3c(N)ncnc32)c2c1CN(CC#N)CCO2 (stereo not shown) [Example 11, [9-[1-(4-Amino-3-methyl-1H-pyrazolo[3,4-d]pyrimidin-1-yl)ethyl]-7-chloro-6-methyl-2,3-dihydro-1,4-benzoxazepin-4(5H)-yl]acetonitrile bis(trifluoroacetate)] |
| ≤ 100 | Cc1c(Cl)cc(C(C)n2nc(C)c3c(N)ncnc32)c2c1CN(C(=O)CC#N)CCO2 (stereo not shown) [Example 12, 3-[9-[1-(4-Amino-3-methyl-1H-pyrazolo[3,4-d]pyrimidin-1-yl)ethyl]-7-chloro-6-methyl-2,3-dihydro-1,4-benzoxazepin-4(5H)-yl]-3-oxopropanenitrile trifluoroacetate] |
| ≤ 100 | Cc1c(Cl)cc(C(C)n2nc(C)c3c(N)ncnc32)c2c1CN(S(C)(=O)=O)CCO2 (stereo not shown) [Example 13, 1-{1-[7-Chloro-6-methyl-4-(methylsulfonyl)-2,3,4,5-tetrahydro-1,4-benzoxazepin-9-yl]ethyl}-3-methyl-1H-pyrazolo[3,4-d]pyrimidin-4-amine trifluoroacetate] |
| ≤ 100 | Cc1c(Cl)cc(C(C)n2nc(C)c3c(N)ncnc32)c2c1CN(S(=O)(=O)c1ccccc1)CCO2 (stereo not shown) [Example 14, 1-{1-[7-Chloro-6-methyl-4-(phenylsulfonyl)-2,3,4,5-tetrahydro-1,4-benzoxazepin-9-yl]ethyl}-3-methyl-1H-pyrazolo[3,4-d]pyrimidin-4-amine trifluoroacetate] |
| ≤ 100 | Cc1noc(C)c1S(=O)(=O)N1CCOc2c(C(C)n3nc(C)c4c(N)ncnc43)cc(Cl)c(C)c2C1 (stereo not shown) [Example 17, 1-(1-{7-Chloro-4-[(3,5-dimethylisoxazol-4-yl)sulfonyl]-6-methyl-2,3,4,5-tetrahydro-1,4-benzoxazepin-9-yl}yl)ethyl)-3-methyl-1H-pyrazolo[3,4-d]pyrimidin-4-amine trifluoroacetate] |
| ≤ 100 | Cc1c(Cl)cc(C(C)n2nc(C)c3c(N)ncnc32)c2c1CN(S(=O)(=O)C1CC1)CCO2 (stereo not shown) [Example 18, 1-{1-[7-Chloro-4-(cyclopropylsulfonyl)-6-methyl-2,3,4,5-tetrahydro-1,4-benzoxazepin-9-yl]ethyl}-3-methyl-1H-pyrazolo[3,4-d]pyrimidin-4-amine trifluoroacetate] |
| ≤ 100 | CCC(=O)N1CCOc2c(C(C)n3nc(C)c4c(N)ncnc43)cc(Cl)c(C)c2C1 (stereo not shown) [Example 20, 1-[1-(7-Chloro-6-methyl-4-propionyl-2,3,4,5-tetrahydro-1,4-benzoxazepin-9-yl)ethyl]-3-methyl-1H-pyrazolo[3,4-d]pyrimidin-4-amine trifluoroacetate] |
| ≤ 100 | COCC(=O)N1CCOc2c(C(C)n3nc(C)c4c(N)ncnc43)cc(Cl)c(C)c2C1 (stereo not shown) [Example 21, 1-{1-[7-Chloro-4-(methoxyacetyl)-6-methyl-2,3,4,5-tetrahydro-1,4-benzoxazepin-9-yl]ethyl}-3-methyl-1H-pyrazolo[3,4-d]pyrimidin-4-amine trifluoroacetate] |
| ≤ 100 | Cc1c(Cl)cc(C(C)n2nc(C)c3c(N)ncnc32)c2c1CN(C(=O)C(C)C)CCO2 (stereo not shown) [Example 22, 1-[1-(7-Chloro-4-isobutyryl-6-methyl-2,3,4,5-tetrahydro-1,4-benzoxazepin-9-yl)ethyl]-3-methyl-1H-pyrazolo[3,4-d]pyrimidin-4-amine trifluoroacetate] |
| ≤ 100 | Cc1c(Cl)cc(C(C)n2nc(C)c3c(N)ncnc32)c2c1CN(c1cnccn1)CCO2 (stereo not shown) [Example 24, 1-[1-(7-Chloro-6-methyl-4-pyrazin-2-yl-2,3,4,5-tetrahydro-1,4-benzoxazepin-9-yl)ethyl]-3-methyl-1H-pyrazolo[3,4-d]pyrimidin-4-amine bis(trifluoroacetate)] |

Target: PI3Kδ (Homo sapiens (Human), UniProt O00329)
Sequence (O00329 whole entry): as the sequence (O00329 whole entry) above
Sequence (P27986 whole entry partner): as the sequence (P27986 whole entry partner) above
Assay: PI3K Enzyme Assay (Example A2), [γ-33P]ATP filter plate
Type: biochemical
Conditions: not given
Outline: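 Recombinant PI3Kδ at 2.9 nM with 50 µM PIP2 in MOPS pH 6.7, MgCl2, DTT, CHAPS, 0.5% DMSO; started with 1000 μM ATP including [γ-33P]ATP, 180 min at room temperature. Phosphorylated product captured on PVDF filter plates and scintillation-counted; IC50 from percent-control activity vs log concentration.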

| IC50 [nM] | Compound |
| --- | --- |
| ≤ 100 | CC(=O)N1CC(N2Cc3c(F)c(Cl)cc(C(C)n4nc(C)c5c(N)ncnc54)c3OC(C)C2)C1 (single isomer, unassigned) [Example 28, 1-{1-[4-(1-Acetylazetidin-3-yl)-7-chloro-6-fluoro-2-methyl-2,3,4,5-tetrahydro-1,4-benzoxazepin-9-yl]ethyl}-3-methyl-1H-pyrazolo[3,4-d]pyrimidin-4-amine] |
| ≤ 100 | CC(=O)N1CC(N2Cc3c(F)c(Cl)cc(C(C)n4nc(C)c5c(N)ncnc54)c3OC(C)C2)C1 (single isomer, unassigned) [Example 29, 1-{1-[4-(1-Acetylazetidin-3-yl)-7-chloro-6-fluoro-2-methyl-2,3,4,5-tetrahydro-1,4-benzoxazepin-9-yl]ethyl}-3-methyl-1H-pyrazolo[3,4-d]pyrimidin-4-amine] |
| ≤ 100 | CC(=O)N1CC(N2Cc3c(F)c(Cl)cc(C(C)n4nc(C)c5c(N)ncnc54)c3OC(C)C2)C1 (single isomer, unassigned) [Example 30, 1-{1-[4-(1-Acetylazetidin-3-yl)-7-chloro-6-fluoro-2-methyl-2,3,4,5-tetrahydro-1,4-benzoxazepin-9-yl]ethyl}-3-methyl-1H-pyrazolo[3,4-d]pyrimidin-4-amine] |
